Laboratory results taken from ChEMBL document CHEMBL2163249, “Exploration of natural compounds as sources of new bifunctional scaffolds targeting cholinesterases and beta amyloid aggregation: the case of chelerythrine” (Bioorg Med Chem, 2012).

Columns and labels:
[1] = molecular target: Cholinesterase (Equus caballus) (UniProt P81908); details: at 2 mg/mL
Description: Inhibition of horse BChE at 2 mg/ml by Ellman's method

[2] = molecular target: Acetylcholinesterase (Electrophorus electricus) (UniProt O42275); details: at 2 mg/mL
Acetylcholinesterase (Electrophorus electricus), sequence (O42275 24-633 limits assumed): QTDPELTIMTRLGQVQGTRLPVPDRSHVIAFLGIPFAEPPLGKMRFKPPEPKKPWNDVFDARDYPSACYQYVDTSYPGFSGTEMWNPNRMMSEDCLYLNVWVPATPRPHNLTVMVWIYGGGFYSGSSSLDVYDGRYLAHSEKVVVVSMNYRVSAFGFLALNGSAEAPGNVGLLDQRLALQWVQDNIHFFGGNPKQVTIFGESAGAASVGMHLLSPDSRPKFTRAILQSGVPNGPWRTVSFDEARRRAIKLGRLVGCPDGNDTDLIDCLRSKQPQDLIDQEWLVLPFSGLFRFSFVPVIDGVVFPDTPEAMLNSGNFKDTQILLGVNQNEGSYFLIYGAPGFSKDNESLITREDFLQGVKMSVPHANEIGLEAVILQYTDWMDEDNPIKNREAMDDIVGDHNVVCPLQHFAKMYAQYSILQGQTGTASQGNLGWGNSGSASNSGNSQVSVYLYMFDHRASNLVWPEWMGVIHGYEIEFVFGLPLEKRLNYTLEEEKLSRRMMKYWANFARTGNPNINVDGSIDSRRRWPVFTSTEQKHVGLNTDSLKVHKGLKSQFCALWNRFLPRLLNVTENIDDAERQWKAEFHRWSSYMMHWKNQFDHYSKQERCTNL
Description: Inhibition of electric eel AChE at 2 mg/ml by Ellman's method

Cholinesterase (Equus caballus), sequence (P81908 whole entry): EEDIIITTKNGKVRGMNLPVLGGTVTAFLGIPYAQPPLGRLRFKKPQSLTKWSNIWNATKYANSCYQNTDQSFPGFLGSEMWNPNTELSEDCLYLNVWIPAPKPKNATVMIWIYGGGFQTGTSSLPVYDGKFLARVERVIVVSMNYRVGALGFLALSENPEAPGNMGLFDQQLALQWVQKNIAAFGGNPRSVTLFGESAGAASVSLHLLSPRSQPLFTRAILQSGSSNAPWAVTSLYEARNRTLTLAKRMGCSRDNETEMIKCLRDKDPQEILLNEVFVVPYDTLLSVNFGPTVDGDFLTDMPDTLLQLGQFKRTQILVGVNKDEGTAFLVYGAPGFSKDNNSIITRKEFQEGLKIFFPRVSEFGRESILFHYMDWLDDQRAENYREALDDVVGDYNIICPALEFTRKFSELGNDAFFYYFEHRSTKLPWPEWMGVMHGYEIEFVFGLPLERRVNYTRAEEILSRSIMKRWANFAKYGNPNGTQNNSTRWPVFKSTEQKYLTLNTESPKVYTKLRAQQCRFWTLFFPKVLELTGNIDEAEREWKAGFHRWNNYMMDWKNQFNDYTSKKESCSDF

| Structure (SMILES) | inhibition [1] [%] | inhibition [2] [%] |
| --- | --- | --- |
| COc1cccc2oc(-c3ccccc3)cc(=O)c12 | 18.3 | 37.5 |
| O=C(/C=C/c1ccc(O)c(O)c1)c1ccc(O)cc1O | -0.63 | 10.1 |
| C[n+]1cccc(C(=O)[O-])c1 | -5.02 | -1.47 |
| CCCCC[C@H](O)/C=C/[C@H]1[C@H](O)CC(=O)[C@@H]1CCCCCCC(=O)O | -1.69 | 16.6 |
| CC(=O)O[C@H]1C(=O)[C@@]2(C)[C@H]([C@H](OC(=O)c3ccccc3)[C@]3(O)C[C@H](O)C(C)=C1C3(C)C)[C@]1(OC(C)=O)CO[C@@H]1C[C@@H]2O | 5.3 | 27.8 |
| CN1C[C@H](CO)C[C@@H]2c3cccc4[nH]cc(c34)C[C@H]21 | 15.3 | 6.82 |
| COc1ccc2cc1Oc1ccc(cc1)C[C@H]1c3c(cc4c(c3Oc3cc5c(cc3OC)CCN(C)[C@@H]5C2)OCO4)CCN1C | 40.6 | 8.59 |
| CN1[C@@H]2CC[C@H]1C[C@@H](OC(=O)C(CO)c1ccccc1)C2 (stereo partly specified) | 4.01 | 15.2 |
| COc1c(O)cc2c(c1O)[C@@H]1O[C@H](CO)[C@@H](O)[C@H](O)[C@H]1OC2=O | -0.62 | 7.33 |
| CC[C@@H](C(=O)[C@@H](C)[C@@H](O)[C@H](C)[C@@H]1O[C@@H]([C@@H](CC)C(=O)O)CC[C@@H]1C)[C@H]1O[C@]2(C=C[C@@H](O)[C@]3(CC[C@@](C)([C@H]4CC[C@](O)(CC)[C@H](C)O4)O3)O2)[C@H](C)C[C@@H]1C | 3.73 | 4.25 |
| CN1[C@@H](CC(=O)c2ccccc2)CCC[C@H]1C[C@H](O)c1ccccc1 | 30.4 | -0.17 |
| N[C@@H](Cn1oc(=O)[nH]c1=O)C(=O)O | 2.65 | 23.1 |
| CC1(C)CCC2=C(O1)c1ccccc1C(=O)C2=O | 11.2 | -2.91 |
| C=C[C@H]1CN2CC[C@H]1C[C@H]2[C@H](O)c1ccnc2ccccc12 | -0.03 | 3.63 |
| C[C@H]1[C@H](OC(=O)CCC(=O)O)O[C@@H]2O[C@@]3(C)CC[C@H]4[C@H](C)CC[C@@H]1[C@@]24OO3 | 4.77 | -5.55 |
| C=C1[C@H]2C[C@@]3([C@@H]1O)[C@@H](CC2=O)[C@]12[C@@H]4C[C@H]3[C@H]1N(CC)C[C@]4(C)CC[C@@H]2O | 1.01 | 26.3 |
| COc1ccc2c3c([nH]c2c1)C(C)=NCC3 | 0.63 | 40.4 |
| CC(=O)N[C@H]1CN2CC[C@H](O)[C@@H]2[C@@H](O)[C@@H]1O | 9.19 | 2.39 |
| Cc1nccc2c1[nH]c1ccccc12 | 39.4 | 22.2 |
| C[C@@H]1O[C@@H](O[C@H]2[C@H](Oc3cc(O)c4c(c3)O[C@H](c3ccc(O)cc3)CC4=O)O[C@H](CO)[C@@H](O)[C@@H]2O)[C@H](O)[C@H](O)[C@H]1O | -5.49 | -3.38 |
| Cc1cc(Cc2cc(C)cc(C(C)(C)C)c2O)c(O)c(C(C)(C)C)c1 | 0.28 | -4.45 |
| CCC12C=CCN3CC[C@@]4(c5ccc(OC)cc5N(C)[C@H]4[C@@](O)(C(=O)OC)[C@@H]1OC(C)=O)[C@@H]32 (stereo partly specified) | -7.45 | 2.49 |
| C/C=C1/C[C@@H](C)[C@@](C)(O)C(=O)OCC2=CCN3CC[C@@H](OC1=O)[C@@H]23 | 19.2 | 7.46 |
| COC(=O)[C@H]1[C@H]2C[C@@H]3c4[nH]c5cc(OC)ccc5c4CCN3C[C@H]2C[C@@H](OC(=O)c2cc(OC)c(OC)c(OC)c2)[C@@H]1OC | 15.3 | 5.06 |

| Structure (SMILES) | inhibition [1] [%] | inhibition [2] [%] |
| --- | --- | --- |
| CCOC(=O)C1=C[C@]2(CC)CCCN3CCc4c(n1c1ccccc41)[C@@H]32 | 29.1 | 12.3 |
| O=c1c(-c2ccc(O)cc2)coc2cc(O)ccc12 | 0.02 | -3.93 |
| CC1=C(/C=C/C(C)=C/C=C/C(C)=C\C(=O)O)C(C)(C)CCC1 | 0.91 | 11.5 |
| CO[C@H]1C[C@H](O[C@H]2[C@H](C)[C@@H](O[C@@H]3O[C@H](C)C[C@H](N(C)C)[C@H]3OC(C)=O)[C@@H](C)C[C@@]3(CO3)C(=O)[C@H](C)[C@@H](OC(C)=O)[C@@H](C)[C@@H](C)OC(=O)[C@@H]2C)O[C@@H](C)[C@@H]1OC(C)=O | -1.09 | 14.8 |
| CN1C(=O)CC[C@H]1c1cccnc1 | -0.23 | 28.6 |
| COc1cc(/C=C/C(=O)c2ccc(O)cc2O)ccc1O | -0.11 | 26.5 |
| C[C@H]1C(=O)CC[C@@H]2[C@]1(C)CC[C@H]1[C@@]2(C)CC[C@@]2(C)[C@@H]3CC(C)(C)CC[C@]3(C)CC[C@]12C | -0.57 | -3.69 |
| COc1cc2c3cc1Oc1c(OC)c(OC)cc4c1[C@@H](Cc1ccc(O)c(c1)Oc1ccc(cc1)C[C@@H]3N(C)CC2)N(C)CC4 | 68.5 | 11.4 |
| C[C@H]1COC2=C1C(=O)C(=O)c1c2ccc2c1CCCC2(C)C | 12.1 | 3.33 |
| CN1[C@@H]2CC[C@H]1C[C@H](O)C2 | -9.24 | 1.27 |
| CCOC(=O)[C@H]1O[C@@H]1C(=O)N[C@@H](CC(C)C)C(=O)NCCC(C)C | -0.73 | 1.24 |
| CC[C@]12CCCN3CCc4c(n(c5ccccc45)C(=O)C1)[C@@H]32 | 0.04 | 12.1 |
| CCCCCCCCCCCCCC(=O)O[C@@H]1[C@@H](C)[C@@]2(O)[C@@H](C=C(CO)C[C@@]3(O)C(=O)C(C)=C[C@@H]23)[C@H]2C(C)(C)[C@]12OC(C)=O | -0.91 | 12.9 |
| CC1=CC(=O)C(C(C)C)=CC1=O | -0.33 | 7.9 |
| N#C[C@H](O[C@@H]1O[C@H](CO[C@@H]2O[C@H](CO)[C@@H](O)[C@H](O)[C@H]2O)[C@@H](O)[C@H](O)[C@H]1O)c1ccccc1 | 5.7 | 0.78 |
| COc1cc2c(c(OC)c1OC)-c1c(cc3c(c1OC)OCO3)C[C@H](C)[C@H](C)C2 | 12.7 | -4.27 |
| CCCCCCCCCCCCC/C=C/[C@@H](O)[C@H](CO)NC(=O)CCCCC | 4.36 | 9.07 |
| CC[C@H]1CC[C@@]2(C)CN(CC)[C@@H]3[C@@H]4[C@@H](O)[C@H]2[C@@]13[C@@H]1C[C@@H]2CC[C@@]4(O)[C@H]1C(=O)O2 | -3.58 | 22.5 |
| C/C=C1\[C@H]2C=C(C)C[C@]1(N)c1ccc(=O)[nH]c1C2 | 11.8 | 97.3 |
| C[C@H]1CCC[C@@H](O)CCCCCc2cc(O)cc(O)c2C(=O)O1 | -4.26 | -1.34 |
| C[C@H]1O[C@@H](O[C@H]2[C@@H](O)C[C@H](O[C@H]3[C@@H](O)C[C@H](O[C@H]4CC[C@@]5(C)[C@H](CC[C@@H]6[C@@H]5CC[C@]5(C)[C@@H](C7=CC(=O)OC7)CC[C@]65O)C4)O[C@@H]3C)O[C@@H]2C)C[C@H](O)[C@@H]1O | -0.78 | -1.83 |
| COc1ccc(/C=C/c2cc(O)cc(O[C@@H]3O[C@H](CO)[C@@H](O)[C@H](O)[C@H]3O)c2)cc1O | -4.38 | -3.62 |
| CC(C)(O)[C@@H]1[C@H]2OC(=O)[C@@H]1[C@]1(O)C[C@H]3O[C@]34C(=O)O[C@H]2[C@]14C | 1.96 | 22.6 |
| O=c1c(O)c(-c2ccccc2O)oc2cc(O)cc(O)c12 | 1.68 | 23 |
